# Results reported in US20200289521A1, “USE OF VITAMIN K IN COMBINATION WITH ANTICOAGULANTS” (KAYDENCE PHARMA AS, priority 2019, published 2020).
# Assays:
# VSMCs [1] = assay: Hypoxia (CoCl2) induced oxidative stress in VSMCs (DCFDA); format: cell-based; conditions: 50 μM CoCl2 for 19 hours; test substance 10 μM; 6 hours
# Protocol: This study was performed to determine whether intracellular oxidative stress in VSCMs is derived from mitochondrial dysfunction. To perform this study, VSMCs were incubated with cobalt chloride, a known stabilizer of HIF1a. Cobalt chloride binding to HIF1a prevents the degradation of HIF1a and thus results in a cellular hypoxia state. HIF1a has been implicated in cancer biology as well as a number of other pathophysiologies, specifically in areas of vascularization and angiogenesis, energy metabolism, cell survival, and tumor invasion. Under normal circumstances, after injury, HIF1a is degraded by the enzyme prolyl hydroxylase (PHD). The continued up-regulation of HIF1a (mimicked by cobalt chloride) promotes tumor growth and metastasis through its role in initiating angiogenesis and regulating cellular metabolism to overcome hypoxia. Hypoxia promotes apoptosis in both normal and tumor cells. Additionally, hypoxia generates significant intracellular oxidative stress.
# To perform the study, VSMCs (10,000 cells/well) were plated in a 96-well plate and left to adhere overnight. Next, the medium was changed to a medium supplemented with 50 μM CoCl2 for 19 hours. The next day, cells were washed and incubated for 1 hour with 20 μM DCFDA in the presence of a vehicle (solvent for CoCl2 and vitamin K2 (MK-7)/UQ10), 10 μM vitamin K2 (MK-7), or 10 μM UQ10 in medium. The medium was then changed to a medium supplemented with vehicle, vitamin K2 (MK-7)/UQ10, or CoCl2, and fluorescent was measured for 6 hours. Fluorescence intensity was normalized for cell count.
# VSMCs [2] = assay: ATP increase in VSMCs, 24 hours (luminescence); format: cell-based; conditions: 10 μM
# Protocol: This study was performed to determine if vitamin K2 (MK-7) affects ATP generation. ATP is generated via glycolysis in the cytoplasm and via both the Krebs-cycle and oxidative phosphorylation in the mitochondria. ATP generation via glycolysis delivers only 2 ATP, whereas ATP generation in the mitochondria generates some 32 ATP.
# (§1) To perform this study, VSCMs (5000 cells/well) were plated in 96-well plates and left to adhere overnight. Next, cells were incubated for 24 hours with either vehicle, vitamin K2 (MK-7) (10 μM), or UQ10 (10 μM). Hoechst was added to correct for cell number (1 μg/mL). Next, ATP was measured using mammalian lysis buffer for 5 minutes after which 50 μL ATP substrate solution was added to the wells and incubated for 10 minutes in a dark environment. Finally, the medium was transferred to a white plate to measure luminescence
# VSMCs [3] = assay: Hypoxia-induced ATP decrease, co-treatment with CoCl2 (luminescence); format: cell-based; conditions: co-treatment CoCl2 100 μM and 10 μM test substance, 24 hours
# Protocol: This study was performed to investigate whether vitamin K2 (MK-7) can prevent the hypoxia-induced decrease in ATP (CoCl2 treatment, thereby stabilization of HIF1a). To perform this study, VSMCs were co-treated with CoCl2 and vitamin K2 (MK-7).
# as §1, with “First,” for “To perform this study,”, “CoCl2 (100 μM) or CoCl2 and” for “vehicle,”, “(MK-7)” for “(MK-7) (10 μM),”, “together (100 and 10 μM, respectively). Next, ATP was measured and corrected for cell numbers. CoCl2 values were set as relative to CoCl2 co-treated with vitamin K2 (MK-7) or UQ10.” for “(10 μM).”, “Finally,” for “Finally, the”, “luminescence.” for “luminescence”
# VSMCs [4] = assay: ATP over time in VSMCs with vitamin K2 (luminescence); format: cell-based; conditions: 10 μM, indicated time points
# Protocol: To perform this study, first, VSCMs (5000 cells/well) were plated in 96-well plates and left to adhere overnight. Next, cells were incubated for indicated time points with vitamin K2 (MK-7) (10 μM). Hoechst was added to correct for cell number (1 μg/mL). Next, ATP was measured using mammalian lysis buffer for 5 minutes, after which 50 μL ATP substrate solution was added to the wells and incubated for 10 minutes in a dark environment. Finally, medium was transferred to a white plate to measure luminescence.
# [5] = test system: whole-blood thrombogenicity; assay: T-TAS Total Thrombus-formation Analysis of whole blood from treated TGR rats; format: in vivo, transgenic Ren-2 rats [TGR(mREN-2)27]
# Protocol: This experiment was conducted in order to evaluate the effects of vitamin K2 (MK-7) on the anticoagulant activity of the new oral anticoagulants (NOAC) rivaroxaban and dabigatran using the T-TAS Total Thrombus-formation Analysis System. The T-TAS Total Thrombus-formation Analysis System is a microchip-based flow chamber system capable of evaluating whole-blood thrombogenicity. It is a useful tool in monitoring the efficacy of anticoagulants on thrombus formation and predicting the risk of bleeding complications. To perform the study, 45 wild-type male Sprague-Dawley and 45 transgenic male Ren-2 rats [TGR(mREN-2)27] at the age of 10-11 weeks at the beginning of the treatment period were purchased from animal facility IKEM-CEM Institute of Clinical and Experimental Medicine (Prague, Czech Republic). All animals in the experiment were housed in individually ventilated cages (2-3 rats per cage) and kept in the animal rooms of JCET at a relative humidity of 55±10%, a temperature of 22±2° C., and a light cycle of 7 AM to 7 PM. The rats had free access to food and water. After delivery, animals were randomly divided into 10 experimental groups (5 or 10 rats per group), as indicated below in Table 1. Four days before the start of the treatment, the first part of animals' body weight and food intake was measured in selected representative three cages (rats n=9) to calculate the appropriate amount of tested compounds required for addition to the diet to obtain the dosing indicated in Table 1. It was estimated that food intake was approximately 30 g of chow per rat per day. The animals were fed for two weeks with AIN-93G diet supplemented with rivaroxaban or dabigatran with/without Vitamin K2 (MK-7), as indicated in Table 1. The animals were then anesthetized in order to draw blood samples for further analysis. The body mass of the rats was measured at the beginning and at the end of treatment. At the beginning and at the end of treatment, the food intake per day was measured in representative group of animals to monitor the daily dosing of tested compounds (per kg of body mass). The thrombus formation in vitro was measured in whole blood using a microchip-based flow chamber system according to manufacturers' protocol (Total Thrombus-formation Analyser System, T-TAS; Fujimori Kogyo Co., Ltd., Tokyo, Japan). For the analysis, citrated whole blood (480 μl) was mixed with 20 μl of 300 mM CaCl2 solution containing 1.25 mg/ml CTI (Corn Trypsin Inhibitor). […] The obtained flow pressure pattern for each sample was used to analyze thrombus formation based on the following estimated parameters: […]
compound,measurement,setting,value
CC(C)=CCC/C(C)=C/CC/C(C)=C/CC/C(C)=C/CC/C(C)=C/CC/C(C)=C/CC/C(C)=C/CC1=C(C)C(=O)c2ccccc2C1=O [vitamin K2 (MK-7)],hypoxia induced oxidative stress,VSMCs [1],seems to counteract hypoxia induced oxidative stress
same,ATP production compared to the vehicle,VSMCs [2],increased ATP production in VSMCs significantly (p=0.014)
same,hypoxia-induced decrease in ATP generation,VSMCs [3],could (partially) prevent the decreased ATP generation
same,ATP production over time,VSMCs [4],stimulated ATP production
same,effect of vitamin K2 (MK-7) on inhibition of thrombus formation by dabigatran and rivaroxaban,[5],did not modify this effect significantly
